Data published in patent publication US20210155604A1, “QUINAZOLINE COMPOUND SERVING AS EGFR TRIPLE MUTATION INHIBITOR AND APPLICATIONS THEREOF” (EAST CHINA UNIVERSITY OF SCIENCE AND TECHNOLOGY, priority 2018, published 2021).

Columns and labels:
[1] = target: EGFR(WT) (Homo sapiens, UniProt P00533); test: ELISA kinase activity detection, EGFR(WT); type: biochemical; details: ELISA-based EGFR-TK assay, ATP 5 μM; mean ± SD of at least two determinations
Method: (§1) Tyrosine kinase: EGFR(WT) • EGFR^T790M/L858R(LR/TM) • EGFR^T790M/L858R/[…](LR/TM/CS)
(§2) ELISA Kinase Activity Detection
Enzyme-Linked Immunosorbent Assay (ELISA) was used to detect the ability of a kinase to phosphorylate a substrate and calculate the inhibitory effect of a compound on the kinase activity. […]
(§3) The main steps of ELISA are listed as follows: the substrate Poly(Glu, Tyr) 4:1 was diluted with potassium ion-free PBS to 2.5 μg/well, incubated at 37° C. for 12-16 h to coat the ELISA plate for use. An ATP solution (final concentration of 5 μM) diluted with a reaction buffer (50 mM HEPES pH 7.4, 20 mM MgCl2, 0.1 mM MnCl2, 0.2 mM Na3VO4, 1 mM DTT) was added to each well. A compound or solvent control was added, and then a kinase was added to start the reaction at 37° C. in a shaker for 1 h. The plate was washed for three times with T-PBS, and 100 μL of antibody PY99 (diluted in T-PBS containing 5 mg/mL BSA, 1: 500) was added, and incubated in a shaker at 37° C. for 0.5 h. After washing the plate with T-PBS, 100 μL of horseradish peroxidase-labeled goat anti-mouse IgG (diluted in T-PBS containing 5 mg/mL BSA, 1: 2000) was added, and incubated in a shaker at 37° C. for 0.5 h. After washing the plate again, a developing liquid containing 0.03% H2O2, 2 mg/mL OPD (0.1 mol/L, in citrate buffer solution pH 5.4) was added at 100 μL/well, and incubated for 1-10 min at 25° C. in darkness. 50 μL/well of 2 M H2SO4 was added to quench the reaction, and read with a wavelength-tunable microplate reader (SpectraMax Plus384, Molecular Devices) at a wavelength of 490 nm. The IC50 value was obtained from the inhibition curve.

[2] = target: T1, EGFR L858R/T790M/C797S (LR/TM/CS) (Homo sapiens, UniProt P00533, C797S/L858R/T790M); test: ELISA kinase activity detection, EGFR triple mutant; type: biochemical; details: ELISA-based EGFR-TK assay, ATP 5 μM, mean ± SD
T1 construct: purchased BPS Bioscience
T1 sequence (P00533 25-1210 T790M/C797S/L858R): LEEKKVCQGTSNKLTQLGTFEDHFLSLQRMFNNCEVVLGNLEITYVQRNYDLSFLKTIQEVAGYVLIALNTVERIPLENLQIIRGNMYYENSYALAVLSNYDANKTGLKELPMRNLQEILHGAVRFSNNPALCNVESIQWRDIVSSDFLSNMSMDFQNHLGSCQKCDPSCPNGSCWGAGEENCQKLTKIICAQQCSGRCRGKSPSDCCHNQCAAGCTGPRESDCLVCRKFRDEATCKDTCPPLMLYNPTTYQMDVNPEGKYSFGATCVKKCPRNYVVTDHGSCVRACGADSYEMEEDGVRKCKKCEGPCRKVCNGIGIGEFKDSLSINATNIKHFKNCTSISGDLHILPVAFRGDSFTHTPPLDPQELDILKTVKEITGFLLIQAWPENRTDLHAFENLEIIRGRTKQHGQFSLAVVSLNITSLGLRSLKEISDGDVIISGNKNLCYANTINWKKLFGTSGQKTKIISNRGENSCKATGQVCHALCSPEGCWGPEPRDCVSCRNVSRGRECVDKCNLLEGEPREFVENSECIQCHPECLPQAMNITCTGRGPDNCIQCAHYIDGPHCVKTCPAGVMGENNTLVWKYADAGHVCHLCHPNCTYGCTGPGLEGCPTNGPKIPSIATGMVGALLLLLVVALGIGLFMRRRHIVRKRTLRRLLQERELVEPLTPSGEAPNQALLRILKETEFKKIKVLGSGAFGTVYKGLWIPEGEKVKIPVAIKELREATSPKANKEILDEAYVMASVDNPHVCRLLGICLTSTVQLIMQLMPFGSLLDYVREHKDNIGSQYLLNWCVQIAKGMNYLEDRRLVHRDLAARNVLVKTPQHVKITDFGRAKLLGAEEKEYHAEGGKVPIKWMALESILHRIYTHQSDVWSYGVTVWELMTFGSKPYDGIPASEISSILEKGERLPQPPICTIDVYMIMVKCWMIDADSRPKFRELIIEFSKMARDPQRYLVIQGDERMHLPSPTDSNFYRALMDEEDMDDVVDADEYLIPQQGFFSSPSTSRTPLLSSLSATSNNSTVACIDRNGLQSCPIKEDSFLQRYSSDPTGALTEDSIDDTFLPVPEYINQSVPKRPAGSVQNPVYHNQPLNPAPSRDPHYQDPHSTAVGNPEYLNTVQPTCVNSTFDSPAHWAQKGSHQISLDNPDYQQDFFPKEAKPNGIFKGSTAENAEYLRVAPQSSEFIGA
Method: as §1, §2
Enzyme-Linked Immunosorbent Assay (ELISA) was used to detect the ability of a kinase to phosphorylate a substrate and calculate the inhibitory effect of a compound on the kinase activity. The used kinase was EGFR L858R/T790M/C797S (purchased from BPS Bioscience).
as §3

[3] = target: EGFR L858R/T790M (LR/TM) (Homo sapiens, UniProt P00533, L858R/T790M); test: ELISA kinase activity detection, EGFR double mutant; type: biochemical; details: ELISA-based EGFR-TK assay, ATP 5 μM, mean ± SD
Sequence of EGFR L858R/T790M (LR/TM) (P00533 25-1210 T790M/L858R): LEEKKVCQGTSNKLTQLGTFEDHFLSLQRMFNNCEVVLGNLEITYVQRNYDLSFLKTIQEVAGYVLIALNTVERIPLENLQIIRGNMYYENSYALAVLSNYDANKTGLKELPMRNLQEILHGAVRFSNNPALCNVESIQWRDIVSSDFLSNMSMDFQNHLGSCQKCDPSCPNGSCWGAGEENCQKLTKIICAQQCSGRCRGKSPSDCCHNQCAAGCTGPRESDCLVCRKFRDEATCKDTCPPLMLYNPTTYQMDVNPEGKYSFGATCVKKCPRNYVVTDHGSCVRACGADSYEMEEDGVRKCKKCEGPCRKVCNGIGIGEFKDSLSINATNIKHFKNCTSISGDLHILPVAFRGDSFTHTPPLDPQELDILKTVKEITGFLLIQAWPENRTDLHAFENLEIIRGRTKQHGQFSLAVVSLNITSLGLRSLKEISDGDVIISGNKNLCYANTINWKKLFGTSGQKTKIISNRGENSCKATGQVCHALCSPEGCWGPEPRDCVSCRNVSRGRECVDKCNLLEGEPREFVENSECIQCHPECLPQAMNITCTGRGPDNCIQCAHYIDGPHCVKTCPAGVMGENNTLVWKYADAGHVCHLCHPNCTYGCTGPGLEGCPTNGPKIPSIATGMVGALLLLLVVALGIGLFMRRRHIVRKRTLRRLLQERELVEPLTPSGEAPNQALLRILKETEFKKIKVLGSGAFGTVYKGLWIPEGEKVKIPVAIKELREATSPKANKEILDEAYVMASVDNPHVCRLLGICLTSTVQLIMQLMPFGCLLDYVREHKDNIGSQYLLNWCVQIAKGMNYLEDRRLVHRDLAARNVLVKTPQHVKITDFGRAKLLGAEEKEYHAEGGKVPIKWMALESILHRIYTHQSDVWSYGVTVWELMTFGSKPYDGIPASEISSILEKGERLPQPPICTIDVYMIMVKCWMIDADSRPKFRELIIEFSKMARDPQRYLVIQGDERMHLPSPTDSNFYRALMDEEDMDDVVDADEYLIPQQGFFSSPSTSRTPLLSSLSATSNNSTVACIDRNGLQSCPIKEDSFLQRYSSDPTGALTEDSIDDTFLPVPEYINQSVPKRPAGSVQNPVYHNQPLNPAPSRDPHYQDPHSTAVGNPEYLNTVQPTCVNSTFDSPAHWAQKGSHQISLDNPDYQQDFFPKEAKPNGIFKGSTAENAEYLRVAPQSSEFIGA

Sequence of EGFR(WT) (P00533 25-1210): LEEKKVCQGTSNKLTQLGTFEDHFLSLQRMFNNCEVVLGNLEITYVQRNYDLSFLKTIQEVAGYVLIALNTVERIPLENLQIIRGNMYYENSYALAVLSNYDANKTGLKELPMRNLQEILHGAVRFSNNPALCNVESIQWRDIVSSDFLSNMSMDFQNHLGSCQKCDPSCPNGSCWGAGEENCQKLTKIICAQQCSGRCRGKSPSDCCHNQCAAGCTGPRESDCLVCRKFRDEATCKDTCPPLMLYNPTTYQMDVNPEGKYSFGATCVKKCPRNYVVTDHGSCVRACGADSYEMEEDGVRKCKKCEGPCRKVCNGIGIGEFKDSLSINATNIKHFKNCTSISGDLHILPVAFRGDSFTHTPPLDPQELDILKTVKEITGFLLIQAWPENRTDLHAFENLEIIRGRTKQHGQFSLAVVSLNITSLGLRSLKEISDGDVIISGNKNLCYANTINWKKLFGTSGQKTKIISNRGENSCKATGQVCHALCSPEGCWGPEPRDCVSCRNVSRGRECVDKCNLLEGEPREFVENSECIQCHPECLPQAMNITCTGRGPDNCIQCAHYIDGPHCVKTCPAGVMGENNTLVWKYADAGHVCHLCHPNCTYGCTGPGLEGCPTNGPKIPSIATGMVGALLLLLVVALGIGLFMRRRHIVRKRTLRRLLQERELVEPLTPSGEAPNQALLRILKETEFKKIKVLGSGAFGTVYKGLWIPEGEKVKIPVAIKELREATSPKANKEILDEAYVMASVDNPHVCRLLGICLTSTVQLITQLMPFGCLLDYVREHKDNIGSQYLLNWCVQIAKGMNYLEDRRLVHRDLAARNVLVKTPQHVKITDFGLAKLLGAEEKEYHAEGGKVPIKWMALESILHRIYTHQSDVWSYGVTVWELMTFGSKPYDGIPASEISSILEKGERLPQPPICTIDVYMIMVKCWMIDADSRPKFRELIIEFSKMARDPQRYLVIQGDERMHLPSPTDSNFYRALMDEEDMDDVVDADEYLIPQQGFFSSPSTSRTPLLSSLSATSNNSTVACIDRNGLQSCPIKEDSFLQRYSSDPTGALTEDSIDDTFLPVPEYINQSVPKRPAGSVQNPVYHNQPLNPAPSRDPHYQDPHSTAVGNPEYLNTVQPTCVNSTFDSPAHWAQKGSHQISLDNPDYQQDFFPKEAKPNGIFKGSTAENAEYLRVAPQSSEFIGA

- IC50 [1]: 2710 ± 80.2 nM
- IC50 [2]: 9510 ± 526 nM
- melting point: 170.7 to 172.4 °C
- IC50 [3]: > 10000 nM
Structure (SMILES): CN1CCC(COc2ccc3c(Nc4ccccc4P(C)(C)=O)ncnc3c2)CC1 [Example 14]
